# From US6258790A, “Antisense modulation of integrin α4 expression” (Isis Pharmaceuticals, Inc., priority 1999, dated 2001)
# System: human integrin α4
# Experiment: Inhibition of human integrin α4 protein levels by antisense oligonucleotides (LIPOFECTIN, flow cytometry with CD49d-FITC) in A375 melanoma cells
# Format: cell-based
# Settings: for % Control (integrin α4 protein) / % Inhib (integrin α4 protein): Table 1, A375 cells, 200 nM oligonucleotide, 6 ug/ml LIPOFECTIN; for inhibition (Example 11): Example 11 assay; for % CONTROL 48 hr / % INHIB 48 hr / % CONTROL 72 hr / % INHIB 72 HR: Table 2, A375
# Description: Integrin α4 protein levels can be quantitated in a variety of ways well known in the art, such as immunoprecipitation, Western blot analysis (immunoblotting), ELISA or fluorescence-activated cell sorting (FACS). Antibodies directed to integrin α4 can be identified and obtained from a variety of sources, such as the MSRS catalog of antibodies (Aerie Corporation, Birmingham, Mich.), or can be prepared via conventional antibody generation methods.
# Target sites are indicated by nucleotide numbers, as given in the sequence source reference (GenBank accession no. L12002), to which the oligonucleotide binds. All compounds in Table 1 are 18 nucleotides in length, with a phosphorothioate backbone and a centered 10-base deoxynucleotide gap flanked by 2'-methoxyethoxy (2'MOE) wings. Human A375 melanoma cells (American Type Culture Collection, Manassas, Va.) were plated at 2000 cells/cm^2 two days before oligonucleotide treatment. Cells were treated with oligonucleotides at a dose of 200 nM oligonucleotide and 6 ug/ml LIPOFECTIN for four hours. Cells were incubated overnight and harvested with 2 mM EDTA in PBS. Cells were washed in 2% bovine serum albumin, 0.2% sodium azide in D-PBS at 4° C. Cells were centrifuged at 200×g, and the supernatant was decanted. […] Antibodies were incubated with the cells for 30 minutes at 4° C. in the dark, under gentle agitation. Cells were washed again as above and then resuspended in 0.3 ml of FacsFlow buffer with 0.5% formaldehyde. Cells were analyzed on Becton Dickinson FACScan. Results are expressed as percentage of control expression based on mean fluorescence intensity.
# Cells were harvested with trypsin at 48 and 72 hours after oligonucleotide treatment and stained with 2 ug/ml CD49d-FITC as in the previous example.
# Where backbones are mixed, linkages are shown as "s" for phosphorothioate (P=S or PS) and "o" for phosphodiester (P=O or PO). Where target region is indicated as `M62841,` oligonucleotides are targeted to the promotor region whose sequence is described in GenBank Accession No. M62841. Remaining oligonucleotides are targeted to the sequence described in Genbank Accession No. L12002 and their target sites on the L12002 sequence are indicated.
# Target sites refer to nucleotide numbers on the target sequence (GenBank Accession No. L12002) to which the oligonucleotides hybridize.
# Oligonucleotides were synthesized as "gapmers" consisting of a 9-nucleotide region of deoxynucleotides flanked by three 2'-O-methoxyethyl(2'-MOE) nucleotides on the 5' end and eight 2'-MOE nucleotides on the 3' end. 2'-MOE nucleotides are shown in bold in the table. Oligonucleotides were synthesized with phosphorothioate backbones throughout, and all cytosines are 5-methylcytosines.
substance,measurement,setting,value
24469 (GTCCAAACATACTTAACG; chemistry not given here) [compound 24469],% Control (integrin α4 protein),,68%
same,% Inhib (integrin α4 protein),,32%
24470 (TATCTGCATCAATTTGTC; chemistry not given here) [compound 24470],% Control (integrin α4 protein),,83%
same,% Inhib (integrin α4 protein),,17%
24471 (ACCGAAAAGCACCAACTG; chemistry not given here) [compound 24471],% Control (integrin α4 protein),,80%
same,% Inhib (integrin α4 protein),,20%
24472 (CTTGTCCTTAGCAAGACA; chemistry not given here) [compound 24472],% Control (integrin α4 protein),,65%
same,% Inhib (integrin α4 protein),,35%
24473 (TCAGGGTGGCTTAAAGAA; chemistry not given here) [compound 24473],inhibition (Example 11),dose not stated,≥ 40%
same,% Control (integrin α4 protein),,53%
same,% CONTROL 48 hr,50 nM,77%
same,% INHIB 48 hr,50 nM,23%
same,% CONTROL 72 hr,50 nM,85%
same,% INHIB 72 HR,50 nM,35%
same,% CONTROL 48 hr,100 nM,49%
same,% INHIB 48 hr,100 nM,51%
same,% CONTROL 72 hr,100 nM,77%
same,% INHIB 72 HR,100 nM,23%
same,% CONTROL 48 hr,200 nM,39%
same,% INHIB 48 hr,200 nM,61%
same,% CONTROL 72 hr,200 nM,61%
same,% INHIB 72 HR,200 nM,39%
same,% CONTROL 48 hr,400 nM,42%
same,% INHIB 48 hr,400 nM,58%
same,% CONTROL 72 hr,400 nM,56%
same,% INHIB 72 HR,400 nM,44%
same,% Control,"Table 6, 10 nM",103%
same,% Control,"Table 6, 30 nM",92%
same,% Control,"Table 6, 100 nM",81%
same,% Inhib.,"Table 6, 100 nM",19%
same,% Control,"Table 6, 300 nM",47%
same,% Inhib.,"Table 6, 300 nM (highest dose)",53%
24474 (ATCCATTTTCAACACAGT; chemistry not given here) [compound 24474],% Control (integrin α4 protein),,71%
same,% Inhib (integrin α4 protein),,29%
"24475 (GCCCTTATATGAGAAACA; phosphorothioate, 2'-MOE/deoxy, further chemistry not given here) [compound 24475]",inhibition (Example 10),"Example 10 assay, dose not stated",≥ 40%
same,% Control (integrin α4 protein),,48%
same,% CONTROL 48 hr,50 nM,60%
same,% INHIB 48 hr,50 nM,40%
same,% CONTROL 72 hr,50 nM,69%
same,% INHIB 72 HR,50 nM,31%
same,% CONTROL 48 hr,100 nM,31%
same,% INHIB 48 hr,100 nM,69%
same,% CONTROL 72 hr,100 nM,44%
same,% INHIB 72 HR,100 nM,56%
same,% CONTROL 48 hr,200 nM,30%
same,% INHIB 48 hr,200 nM,70%
same,% CONTROL 48 hr,400 nM,39%
same,% INHIB 48 hr,400 nM,61%
same,% CONTROL 72 hr,400 nM,52%
same,% INHIB 72 HR,400 nM,48%
same,% Control,"Table 4, 10 nM",97%
same,% Control,"Table 4, 30 nM",73%
same,% Inhib.,"Table 4, 30 nM",27%
same,% Control,"Table 4, 100 nM",84%
same,% Inhib.,"Table 4, 100 nM",16%
same,% Control,"Table 4, 300 nM",55%
same,% Inhib.,"Table 4, 300 nM (highest dose)",45%
24476 (CAATTTGAAAGAAGTCCT; chemistry not given here) [compound 24476],% Control (integrin α4 protein),,99%
24477 (TCCATTCTCTCAATTTGA; chemistry not given here) [compound 24477],inhibition (Example 11),dose not stated,≥ 40%
same,% Control (integrin α4 protein),,43%
same,% CONTROL 48 hr,50 nM,56%
same,% INHIB 48 hr,50 nM,44%
same,% CONTROL 72 hr,50 nM,72%
same,% INHIB 72 HR,50 nM,28%
same,% CONTROL 48 hr,100 nM,47%
same,% INHIB 48 hr,100 nM,53%
same,% CONTROL 72 hr,100 nM,67%
same,% INHIB 72 HR,100 nM,33%
same,% CONTROL 48 hr,200 nM,34%
same,% INHIB 48 hr,200 nM,66%
same,% CONTROL 72 hr,200 nM,44%
same,% INHIB 72 HR,200 nM,56%
same,% CONTROL 48 hr,400 nM,35%
same,% INHIB 48 hr,400 nM,65%
same,% CONTROL 72 hr,400 nM,53%
same,% INHIB 72 HR,400 nM,47%
same,% Control,"Table 6, 10 nM",83%
same,% Inhib.,"Table 6, 10 nM",17%
same,% Control,"Table 6, 30 nM",80%
same,% Inhib.,"Table 6, 30 nM",20%
same,% Control,"Table 6, 100 nM",63%
same,% Inhib.,"Table 6, 100 nM",37%
same,% Control,"Table 6, 300 nM",33%
same,% Inhib.,"Table 6, 300 nM (highest dose)",67%
24478 (GGCGGGCTGTTTTCCATT; chemistry not given here) [compound 24478],% Control (integrin α4 protein),,115%
"24739 (TTTAGTGACAAAGACGTTAT; phosphorothioate deoxy, further chemistry not given here) [compound 24739]",% Control,"Table 4, 10 nM",69%
same,% Inhib.,"Table 4, 10 nM",31%
same,% Control,"Table 4, 30 nM",67%
same,% Inhib.,"Table 4, 30 nM",33%
same,% Control,"Table 4, 100 nM",121%
same,% Control,"Table 4, 300 nM",107%
"24740 (GAAGGCCCCTGGGGAACATT; phosphorothioate deoxy, further chemistry not given here) [compound 24740]",% Control,"Table 4, 10 nM",122%
same,% Control,"Table 4, 30 nM",119%
same,% Control,"Table 4, 100 nM",106%
same,% Control,"Table 4, 300 nM",88%
same,% Inhib.,"Table 4, 300 nM (highest dose)",12%
"24741 (AGACGTTATGGCTATTCTCT; phosphorothioate deoxy, further chemistry not given here) [compound 24741]",% Control,"Table 4, 10 nM",109%
same,% Control,"Table 4, 30 nM",113%
same,% Control,"Table 4, 100 nM",125%
same,% Control,"Table 4, 300 nM",127%
"24742 (TTTAGTGACAAAGACGTTAT; phosphorothioate, 2'-MOE, 5-methyl-C, further chemistry not given here) [compound 24742]",% Control,"Table 4, 10 nM",112%
same,% Control,"Table 4, 30 nM",107%
same,% Control,"Table 4, 100 nM",123%
same,% Control,"Table 4, 300 nM",128%
"24743 (GAAGGCCCCTGGGGAACATT; phosphorothioate, 2'-MOE, 5-methyl-C, further chemistry not given here) [compound 24743]",% Control,"Table 4, 10 nM",96%
same,% Control,"Table 4, 30 nM",121%
same,% Control,"Table 4, 100 nM",117%
same,% Control,"Table 4, 300 nM",105%
"24744 (AGACGTTATGGCTATTCTCT; phosphorothioate, 2'-MOE, 5-methyl-C, further chemistry not given here) [compound 24744]",% Control,"Table 4, 10 nM",121%
same,% Control,"Table 4, 30 nM",110%
same,% Control,"Table 4, 100 nM",118%
same,% Control,"Table 4, 300 nM",118%
